Legend:
[1] = target: T1, Aurora B (Homo sapiens, UniProt Q96GD4); experiment: Aurora B Inhibition Assay (Z-Lyte); type: biochemical; conditions: 128 μM ATP, 28 nM Aurora B; read-out: Aurora B IC50 Ranges
T1 construct: purchased Invitrogen PV3970
Protocol: (§1) Aurora B inhibition was determined using the Z-Lyte assay kit from Invitrogen. The assay was performed using the recommended manufacturer's instructions with 128 μM ATP and 28 nM Aurora B (Invitrogen cat #PV3970). The % inhibition values were determined according to the manufacturer's directions and IC50 values were obtained using a non-linear 4 point logistic curve fit (XLfit4, IDBS)

[2] = target: T2, Aurora A (Homo sapiens, UniProt O14965); experiment: Aurora A Inhibition Assay (Z-Lyte); type: biochemical; conditions: for inhibition at 10 µM: 10 μM compound, read-out: Aurora A relative inhibition percentage at a dose of 10 μM; for IC50: 20 μM ATP, 12 nM Aurora A, read-out: Aurora A IC50 Ranges
T2 construct: purchased Invitrogen PV3612
T2 sequence (O14965 1-403): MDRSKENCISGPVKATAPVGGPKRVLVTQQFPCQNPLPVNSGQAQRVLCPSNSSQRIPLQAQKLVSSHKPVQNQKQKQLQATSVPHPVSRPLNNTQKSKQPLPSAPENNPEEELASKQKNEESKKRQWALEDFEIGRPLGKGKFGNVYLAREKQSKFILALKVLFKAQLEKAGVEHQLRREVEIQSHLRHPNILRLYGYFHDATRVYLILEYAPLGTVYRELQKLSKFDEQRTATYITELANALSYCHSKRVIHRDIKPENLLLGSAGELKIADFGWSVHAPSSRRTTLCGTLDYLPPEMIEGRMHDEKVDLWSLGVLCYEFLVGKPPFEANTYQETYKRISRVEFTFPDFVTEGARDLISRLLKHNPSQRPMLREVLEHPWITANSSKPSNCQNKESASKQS
Protocol: as §1, with “Aurora A” for “Aurora B”, “with 20” for “with 128”, “and 12” for “and 28”, “cat #PV3612).” for “cat #PV3970).”

[3] = target: T3, human PLK4 (Homo sapiens, UniProt O00444); experiment: PLK4 Inhibition Assay (indirect ELISA); type: biochemical; conditions: 15 μM ATP, 4 nM GST-PLK4; read-out: PLK4 IC50 Ranges
T3 construct: amino terminal GST fusion of residues 1-391 of human PLK4; made in house; host or cells: E. coli
T3 sequence (O00444 1-391): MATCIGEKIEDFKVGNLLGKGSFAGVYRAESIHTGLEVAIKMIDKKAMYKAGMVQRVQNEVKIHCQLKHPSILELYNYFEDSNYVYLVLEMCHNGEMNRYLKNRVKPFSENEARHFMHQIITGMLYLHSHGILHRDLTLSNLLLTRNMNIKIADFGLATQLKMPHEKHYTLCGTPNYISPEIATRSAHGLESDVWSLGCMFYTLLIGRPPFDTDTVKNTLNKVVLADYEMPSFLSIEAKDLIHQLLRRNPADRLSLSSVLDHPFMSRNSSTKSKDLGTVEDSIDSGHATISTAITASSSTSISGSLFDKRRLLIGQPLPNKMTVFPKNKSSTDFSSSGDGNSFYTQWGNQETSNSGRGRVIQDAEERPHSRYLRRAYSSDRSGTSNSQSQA
How it was run: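 IC50 values, from 4-point logistic fitting, reflect remaining activity measured by indirect ELISA. Enzyme was GST-PLK4 treated with lambda phosphatase and given a 15-minute pre-incubation with compound before ATP start.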

[4] = target: T4, PLK1 (Homo sapiens, UniProt P53350); experiment: PLK1 Inhibition Assay (Z-Lyte); type: biochemical; conditions: for inhibition at 10 µM: 10 μM compound, read-out: PLK1 relative inhibition percentage at a dose of 10 μM; for IC50: 25 μM ATP, 8 nM PLK1, read-out: PLK1 IC50 Ranges
T4 construct: purchased Invitrogen PV3501
Protocol: PLK1 inhibition was determined using the Z-Lyte assay kit from Invitrogen (cat #PV3802). […] The % inhibition values were determined according to the manufacturer's directions and IC50 values were obtained using a non-linear 4 point logistic curve fit (XLfit4, IDBS)

[5] = target: TRKA (Homo sapiens, UniProt P04629); experiment: Millipore kinase assay, radiolabelled phosphopeptide filter binding, IC50 estimate; type: biochemical; design: purchased Millipore (assay service); conditions: estimated from inhibition at three compound concentrations; ATP at the Km
Protocol: (§2) Kinase assays at Millipore were performed using a radiolabelled phosphopeptide filter binding detection system, in duplicate, at each compound concentration. The ATP substrate concentration in the reactions was at the Km for each enzyme.
(§3) To allow for a more direct comparison of compound inhibition, an IC50 value was estimated from the inhibition determined at three compound concentrations. Several assumptions were made to allow this calculation using a 4 parameter non linear curve fit model, including full inhibition set at 100%, no inhibition set to 0%, and a curve fit parameter set at 1. The inflection point was reported as the estimated IC50.

[6] = target: Ret (Homo sapiens, UniProt P07949); experiment: as above; type: biochemical; design: purchased Millipore (assay service); conditions: estimated from inhibition at three compound concentrations; ATP at the Km
Protocol: as §2, §3

[7] = target: Lyn (Homo sapiens, UniProt P07948); experiment: as above; type: biochemical; design: purchased Millipore (assay service); conditions: estimated from inhibition at three compound concentrations; ATP at the Km
Protocol: as §2, §3

[8] = target: Abl (Homo sapiens, UniProt P00519); experiment: as above; type: biochemical; design: purchased Millipore (assay service); conditions: estimated from inhibition at three compound concentrations; ATP at the Km
Protocol: as §2, §3

[9] = target: T5, PLK2 (Homo sapiens, UniProt Q9NYY3); experiment: PLK2 Inhibition Assay (Z-Lyte); type: biochemical; conditions: for inhibition at 10 µM: 10 μM compound, read-out: PLK2 relative inhibition percentage at a dose of 10 μM; for IC50: 60 μM ATP, 133 nM PLK2, read-out: PLK2 IC50 Ranges
T5 construct: purchased Invitrogen PV4204
Protocol: as §1, with “PLK2” for “Aurora B”, “Invitrogen (cat #PV3802).” for “Invitrogen.”, “60” for “128”, “133” for “28”, “#PV4204).” for “#PV3970).”

[10] = tested on: AMPKa; experiment: Kinase Selectivity Assay (CEREP, HTRF); type: biochemical, human
Protocol: kinase, ROCK2, RSK2, Src kinase, Syk, and TRKA. The % Inhibition was determined

Chain of Abl (P00519 whole entry): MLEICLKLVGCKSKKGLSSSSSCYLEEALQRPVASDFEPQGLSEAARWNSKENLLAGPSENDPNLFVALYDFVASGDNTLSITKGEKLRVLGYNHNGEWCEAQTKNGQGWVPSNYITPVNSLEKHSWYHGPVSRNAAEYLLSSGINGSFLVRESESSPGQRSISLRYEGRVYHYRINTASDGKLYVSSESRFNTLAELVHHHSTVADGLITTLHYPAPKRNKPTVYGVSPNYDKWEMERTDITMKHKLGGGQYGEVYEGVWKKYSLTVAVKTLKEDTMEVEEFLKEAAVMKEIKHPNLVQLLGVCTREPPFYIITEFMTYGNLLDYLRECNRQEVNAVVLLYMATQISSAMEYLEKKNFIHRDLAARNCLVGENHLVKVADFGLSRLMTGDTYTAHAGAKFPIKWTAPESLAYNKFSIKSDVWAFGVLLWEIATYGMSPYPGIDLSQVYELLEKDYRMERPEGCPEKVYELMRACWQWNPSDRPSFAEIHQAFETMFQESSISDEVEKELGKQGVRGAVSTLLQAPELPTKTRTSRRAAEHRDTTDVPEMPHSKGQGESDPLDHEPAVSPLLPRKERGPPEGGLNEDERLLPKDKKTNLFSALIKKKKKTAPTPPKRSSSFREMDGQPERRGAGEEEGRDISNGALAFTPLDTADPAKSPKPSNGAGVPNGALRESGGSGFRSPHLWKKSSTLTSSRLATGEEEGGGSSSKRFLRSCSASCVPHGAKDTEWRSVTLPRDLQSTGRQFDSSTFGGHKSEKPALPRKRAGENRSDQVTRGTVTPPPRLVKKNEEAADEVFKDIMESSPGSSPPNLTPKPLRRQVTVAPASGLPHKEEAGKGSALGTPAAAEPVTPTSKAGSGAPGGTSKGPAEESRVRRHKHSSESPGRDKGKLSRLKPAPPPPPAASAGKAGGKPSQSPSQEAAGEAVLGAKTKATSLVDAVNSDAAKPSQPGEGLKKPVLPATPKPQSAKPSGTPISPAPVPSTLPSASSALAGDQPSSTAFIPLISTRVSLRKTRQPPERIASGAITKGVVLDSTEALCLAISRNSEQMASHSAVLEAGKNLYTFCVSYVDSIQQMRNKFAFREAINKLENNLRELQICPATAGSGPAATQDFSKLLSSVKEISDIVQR
Chain of Lyn (P07948 whole entry): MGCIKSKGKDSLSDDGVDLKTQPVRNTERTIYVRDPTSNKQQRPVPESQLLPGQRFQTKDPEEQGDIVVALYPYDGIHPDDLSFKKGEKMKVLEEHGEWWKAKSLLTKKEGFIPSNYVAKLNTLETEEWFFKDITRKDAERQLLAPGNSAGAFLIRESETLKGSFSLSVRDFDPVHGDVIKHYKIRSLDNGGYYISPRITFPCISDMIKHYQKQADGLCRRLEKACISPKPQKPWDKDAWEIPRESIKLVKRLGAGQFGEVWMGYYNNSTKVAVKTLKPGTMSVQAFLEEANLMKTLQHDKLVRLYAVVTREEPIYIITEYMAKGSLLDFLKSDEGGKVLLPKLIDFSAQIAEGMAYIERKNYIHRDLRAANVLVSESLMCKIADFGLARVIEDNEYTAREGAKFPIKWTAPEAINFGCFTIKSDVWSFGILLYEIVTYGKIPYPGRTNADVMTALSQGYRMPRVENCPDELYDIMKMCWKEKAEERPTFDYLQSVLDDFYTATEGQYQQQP
Chain of Ret (P07949 29-1114): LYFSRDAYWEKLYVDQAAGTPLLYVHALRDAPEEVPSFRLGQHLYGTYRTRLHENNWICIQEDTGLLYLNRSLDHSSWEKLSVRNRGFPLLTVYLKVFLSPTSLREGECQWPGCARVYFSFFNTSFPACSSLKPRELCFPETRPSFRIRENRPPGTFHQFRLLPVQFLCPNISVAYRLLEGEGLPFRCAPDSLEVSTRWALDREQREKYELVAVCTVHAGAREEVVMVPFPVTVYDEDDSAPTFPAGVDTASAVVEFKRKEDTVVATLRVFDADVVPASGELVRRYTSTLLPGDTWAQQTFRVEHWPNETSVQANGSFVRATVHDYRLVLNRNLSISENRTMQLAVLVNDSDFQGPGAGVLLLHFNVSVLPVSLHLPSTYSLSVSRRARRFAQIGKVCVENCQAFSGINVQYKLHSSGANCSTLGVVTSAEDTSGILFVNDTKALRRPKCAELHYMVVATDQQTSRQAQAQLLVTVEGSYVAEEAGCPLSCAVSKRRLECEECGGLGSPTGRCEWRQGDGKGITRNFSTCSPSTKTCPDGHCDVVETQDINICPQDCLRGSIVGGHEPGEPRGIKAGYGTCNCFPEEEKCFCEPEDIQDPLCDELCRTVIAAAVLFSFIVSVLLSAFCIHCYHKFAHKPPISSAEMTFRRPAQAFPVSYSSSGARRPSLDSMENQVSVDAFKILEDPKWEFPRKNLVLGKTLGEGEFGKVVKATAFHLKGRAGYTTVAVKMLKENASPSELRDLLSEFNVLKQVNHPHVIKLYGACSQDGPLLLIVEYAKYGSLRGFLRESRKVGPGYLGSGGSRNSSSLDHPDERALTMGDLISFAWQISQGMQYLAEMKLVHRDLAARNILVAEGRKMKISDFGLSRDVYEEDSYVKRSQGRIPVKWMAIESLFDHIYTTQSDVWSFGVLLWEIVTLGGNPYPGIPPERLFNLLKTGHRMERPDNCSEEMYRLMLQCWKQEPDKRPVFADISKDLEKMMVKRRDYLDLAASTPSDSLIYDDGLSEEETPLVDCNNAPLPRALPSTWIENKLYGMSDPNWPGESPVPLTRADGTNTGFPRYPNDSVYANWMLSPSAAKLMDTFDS
Chain of TRKA (P04629 33-796): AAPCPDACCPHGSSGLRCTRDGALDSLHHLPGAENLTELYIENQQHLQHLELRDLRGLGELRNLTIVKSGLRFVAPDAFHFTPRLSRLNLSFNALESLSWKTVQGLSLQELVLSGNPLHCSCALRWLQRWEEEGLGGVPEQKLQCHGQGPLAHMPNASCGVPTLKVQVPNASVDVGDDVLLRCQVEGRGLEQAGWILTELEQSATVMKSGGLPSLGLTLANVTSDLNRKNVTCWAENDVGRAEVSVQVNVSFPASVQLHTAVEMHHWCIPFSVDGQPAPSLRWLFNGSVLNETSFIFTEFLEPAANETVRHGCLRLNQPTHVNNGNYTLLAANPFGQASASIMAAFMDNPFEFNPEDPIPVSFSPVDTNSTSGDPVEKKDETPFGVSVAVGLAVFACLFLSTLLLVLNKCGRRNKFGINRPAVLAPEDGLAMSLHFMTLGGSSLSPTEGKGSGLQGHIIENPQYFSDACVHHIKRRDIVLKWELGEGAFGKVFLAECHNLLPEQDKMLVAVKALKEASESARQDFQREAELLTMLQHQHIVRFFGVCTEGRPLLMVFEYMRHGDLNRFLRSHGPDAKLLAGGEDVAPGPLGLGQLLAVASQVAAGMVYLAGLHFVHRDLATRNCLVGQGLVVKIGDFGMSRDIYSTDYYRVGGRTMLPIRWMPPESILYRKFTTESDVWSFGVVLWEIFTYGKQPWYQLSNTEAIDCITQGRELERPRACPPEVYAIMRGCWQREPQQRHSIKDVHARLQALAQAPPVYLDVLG
T1 sequence (Q96GD4 whole entry): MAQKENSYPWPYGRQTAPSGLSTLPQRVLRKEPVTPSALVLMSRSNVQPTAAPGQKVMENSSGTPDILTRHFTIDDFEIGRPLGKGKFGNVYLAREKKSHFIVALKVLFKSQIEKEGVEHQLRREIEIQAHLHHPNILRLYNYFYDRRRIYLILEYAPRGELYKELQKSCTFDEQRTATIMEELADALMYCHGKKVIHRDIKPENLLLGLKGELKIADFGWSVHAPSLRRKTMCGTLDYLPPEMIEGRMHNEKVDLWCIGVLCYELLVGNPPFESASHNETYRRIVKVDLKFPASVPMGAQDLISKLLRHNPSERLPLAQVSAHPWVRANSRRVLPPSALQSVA
T4 sequence (P53350 whole entry): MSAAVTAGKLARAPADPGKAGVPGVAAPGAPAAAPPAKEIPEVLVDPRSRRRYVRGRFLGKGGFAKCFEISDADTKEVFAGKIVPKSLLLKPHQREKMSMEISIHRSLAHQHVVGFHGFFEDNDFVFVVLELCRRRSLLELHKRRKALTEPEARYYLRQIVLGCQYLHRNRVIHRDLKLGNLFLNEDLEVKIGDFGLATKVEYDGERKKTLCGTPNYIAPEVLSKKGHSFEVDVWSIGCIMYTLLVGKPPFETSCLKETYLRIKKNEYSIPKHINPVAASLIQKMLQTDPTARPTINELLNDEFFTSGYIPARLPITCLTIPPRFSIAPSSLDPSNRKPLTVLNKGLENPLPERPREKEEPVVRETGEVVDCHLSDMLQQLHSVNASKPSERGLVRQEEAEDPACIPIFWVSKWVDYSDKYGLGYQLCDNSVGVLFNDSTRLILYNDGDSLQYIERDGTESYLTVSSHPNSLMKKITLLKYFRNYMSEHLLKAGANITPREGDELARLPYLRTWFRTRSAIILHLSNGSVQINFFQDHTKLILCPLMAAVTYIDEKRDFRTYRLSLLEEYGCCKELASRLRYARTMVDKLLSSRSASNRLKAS

Row | SMILES | IC50 [1] [µM] | inhibition at 10 µM [2] [%] | IC50 [3] [µM] | inhibition at 10 µM [4] [%] | IC50 [5] [µM] | IC50 [6] [µM] | IC50 [7] [µM] | IC50 [8] [µM] | IC50 [2] [µM] | inhibition at 10 µM [9] [%] | IC50 [9] [µM] | IC50 [4] [µM] | % Inhibition at 10 μM Concentration, AMPKalpha [10] [%]
1 | CN(C)Cc1ccc(/C=C/c2n[nH]c3cc(C=C4C(=O)Nc5ccccc54)ccc23)cc1 (mixture of isomers) [Example A106, (E and Z)-3-[(3-{(E)-2-[4-((dimethylamino)methyl)-phenyl]-ethenyl}-1H-indazol-6-yl)methylidene]-1,3-dihydro-2H-indol-2-one 2,2,2-trifluoroacetate] | < 5 | > 50 | < 5 | < 50 | < 5 | < 5 | < 5 | < 5 | – | – | – | – | –
2 | CN1CCN(c2ccc(/C=C/c3n[nH]c4cc(C=C5C(=O)Nc6ccccc65)ccc34)cn2)CC1 (mixture of isomers) [Example A108, (E and Z)-3-((3-((E)-2-(6-(4-methylpiperazin-1-yl)pyridin-3-yl)vinyl)-1H-indazol-6-yl)methylene)indolin-2-one] | < 5 | – | < 5 | < 50 | – | – | – | – | < 5 | < 50 | – | – | –
3 | O=C1Nc2ncc(Br)cc2C1=Cc1ccc2c(/C=C/c3ccncc3)n[nH]c2c1 (mixture of isomers) [Example A109, (E and Z)-5-bromo-3-((3-((E)-2-(pyridin-4-yl)vinyl)-1H-indazol-6-yl)methyl-ene)-1H-pyrrolo[2,3-b]pyridin-2(3H)-one] | < 5 | – | < 5 | < 50 | – | – | – | – | < 5 | < 50 | – | – | –
4 | O=C1Nc2ccccc2/C1=C\c1ccc2cn[nH]c2c1 [Example A5, (E)-3-((1H-indazol-6-yl)methylene)indolin-2-one] | < 5 | – | – | – | – | – | – | – | < 5 | – | 5 to 50 | 5 to 50 | 54
5 | COc1ccc2c(c1)C(=Cc1ccc3c(-c4ccc(N5CCN(C)CC5)nc4)n[nH]c3c1)C(=O)N2 (mixture of isomers) [Example A97, (E and Z)-5-methoxy-3-((3-(6-(4-methylpiperazin-1-yl)pyridin-3-yl)-1H-indazol-6-yl)methylene)indolin-2-one] | < 5 | – | < 5 | – | < 5 | < 5 | 5 to 50 | < 5 | – | – | – | – | 76
6 | O=C1Nc2ccccc2C1=Cc1ccc2c(/C=C/c3ccccn3)n[nH]c2c1 (mixture of isomers) [Example A41, (E and Z)-3-((3-((E)-2-(pyridin-2-yl)vinyl)-1H-indazol-6-yl)methylene)indolin-2-one] | < 5 | – | < 5 | – | < 5 | < 5 | < 5 | < 5 | < 5 | – | > 50 | > 50 | 81
7 | O=C1Nc2ccccc2/C1=C\c1ccc2[nH]nnc2c1 [Example A1, (E)-3-((1H-benzo[d][1,2,3]triazol-5-yl)methylene)indolin-2-one] | < 5 | < 50 | < 5 | – | – | – | – | – | – | – | 5 to 50 | 5 to 50 | 15
8 | O=C1Nc2ccccc2/C1=C\c1ccc2c(/C=C/c3ccccc3Cl)n[nH]c2c1 [Example A60, (E)-3-((3-((E)-2-chlorostyryl)-1H-indazol-6-yl)methylene)indolin-2-one] | < 5 | – | < 5 | < 50 | – | – | – | – | < 5 | < 50 | – | – | 8
